Measurements as given in patent US12398127B2, “Thyroid hormone receptor beta agonist compounds” (Terns Pharmaceuticals, Inc., priority 2019, dated 2025).

Experiments:
[1] = target: T1, TR beta-LBD (Homo sapiens, UniProt P10828); experiment: LanthaScreen TR-FRET Thyroid Receptor beta Coactivator Assay; assay type: biochemical; conditions: for THRβ-Selectivity: THR beta over THR alpha, derived from T3-selectivity normalized data; for EC50: TR-FRET coactivator recruitment, 2 hour incubation at room temperature, run in duplicate multiple times, average data reported, read-out: EC50 THRβ-FRET
T1 construct: TR alpha-LBD (0.4 nM final concentration) or TR beta-LBD (1.0 nM final concentration) was added; purchased ThermoFisher
T1 sequence (P10828 217-461 limits assumed): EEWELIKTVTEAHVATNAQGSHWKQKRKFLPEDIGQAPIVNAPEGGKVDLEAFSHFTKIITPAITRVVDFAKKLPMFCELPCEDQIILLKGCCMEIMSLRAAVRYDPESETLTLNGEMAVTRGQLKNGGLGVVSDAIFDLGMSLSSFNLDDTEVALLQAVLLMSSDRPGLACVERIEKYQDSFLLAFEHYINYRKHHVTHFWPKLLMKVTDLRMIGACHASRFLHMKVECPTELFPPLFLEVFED
Procedure: (§1) LanthaScreen™ TR-FRET Thyroid Receptor alpha Coactivator Assay kit (ThermoFisher) and LanthaScreen™ TR-FRET Thyroid Receptor beta Coactivator Assay kit (ThermoFisher) were used for agonist compound screening. Compounds in DMSO were diluted using ECHO Liquid Handler (Labcyte Inc.) into 384 plates in 10-point 3-fold series in duplicate (5 micro M final top concentration). Buffer C (ThermoFisher) was added to each well before the 4×mixture of fluorescein-SCR2-2 coactivator (200 nM final concentration), Terbium-labeled anti-GST antibody (2 nM final concentration), and TR alpha-LBD (0.4 nM final concentration) or TR beta-LBD (1.0 nM final concentration) was added. After 2 hour incubation at room temperature in dark, the TR-FRET signal was measured on an EnVision plate reader (PerkinElmer) with excitation at 340 nm and dual emission readout at 495 and 520 nm with the delay time of 100 micro second and the integration time of 200 micro second. The ratio of emission signal at 520 and at 495 was used to calculate EC50 using GraphPad Prism (GraphPad Software). In every batch of compound screening, T3 (L-3,3′,5-Triiodothyronine sodium salt, >95%) (Calbiochem) was used as reference compound. The EC50 of T3 measured were within 3-fold of the reference value provided by the assay kit manufacturer (ThermoFisher Scientific). The Z′ factors measured in every batch of screening using T3 as high percent effect (HPE) control and 0.5% DMSO as zero percent effect (ZPE) control were in the range of 0.5 to 0.8. Compounds' THR-beta selectivity values are derived from T3-selectivity normalized data.

[2] = target: T2, TR alpha-LBD (Homo sapiens, UniProt P10827); experiment: LanthaScreen TR-FRET Thyroid Receptor alpha Coactivator Assay; assay type: biochemical; conditions: TR-FRET coactivator recruitment, 2 hour incubation at room temperature; run in duplicate multiple times, average data reported; read-out: EC50 THRα-FRET
T2 construct: TR alpha-LBD (0.4 nM final concentration) or TR beta-LBD (1.0 nM final concentration) was added; purchased ThermoFisher
T2 sequence (P10827 163-410 isoform P10827-2 limits assumed, other chains not shown): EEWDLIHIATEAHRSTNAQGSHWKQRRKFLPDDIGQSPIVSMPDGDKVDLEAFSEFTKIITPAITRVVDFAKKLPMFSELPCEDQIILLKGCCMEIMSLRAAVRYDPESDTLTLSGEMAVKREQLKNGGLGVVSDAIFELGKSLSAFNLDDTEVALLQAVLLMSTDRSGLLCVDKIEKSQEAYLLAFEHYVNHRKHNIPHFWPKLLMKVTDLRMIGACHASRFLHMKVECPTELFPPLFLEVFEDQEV
Procedure: as §1, with “The EC50 of T3 measured were within 3-fold of the reference value provided by the assay kit manufacturer (ThermoFisher Scientific).” left out, “Compounds' THR-beta selectivity values are derived from T3-selectivity normalized data.” left out

Row | SMILES | THRβ-Selectivity [1] | EC50 [1] [nM] | EC50 [2] [nM]
1 | O=C(Nc1cc(Cl)c(Oc2n[nH]c(=O)c3ccccc23)c(Cl)c1)c1noc(=O)[nH]1 [Example 1, N-(3,5-dichloro-4-((4-oxo-3,4-dihydrophthalazin-1-yl)oxy)phenyl)-5-oxo-4,5-dihydro-1,2,4-oxadiazole-3-carboxamide] | 57.5 | 33.7 | 492
2 | Cn1nc(Oc2c(Cl)cc(NC(=O)c3noc(=O)[nH]3)cc2Cl)c2ccccc2c1=O [Example 2, N-(3,5-dichloro-4-((3-methyl-4-oxo-3,4-dihydrophthalazin-1-yl)oxy)phenyl)-5-oxo-4,5-dihydro-1,2,4-oxadiazole-3-carboxamide] | 10.9 | 5.5 | 40.5
